The record followed here is patent US7592160B2, “Processes for producing isomaltose and isomaltitol and use thereof” (Kabushiki Kaisha Hayashibara Seibutsu Kagaku Kenkyujo, priority 2001, dated 2009).

The test system of assay [1] is α-isomaltosylglucosaccharide-forming enzyme. Nature of the assay: Action on saccharides as substrates (TLC), enzyme of C9 strain. The assay is classed as biochemical, Bacillus globisporus C9 strain. Also noted: key: −: it showed no change; +: it showed a slight reduction of the color spot of the substrate and the formation of other reaction product; ++: it showed a high reduction of the color spot of the substrate and the formation of other reaction product; +++: it showed a substantial disappearance of the substrate spot and the formation of other reaction product. Particulars: two units/g substrate, substrate 2% (w/v), 30° C., pH 6.0, 24 hours. The text has this:
(§1) To examine the saccharides in the supernatant, they were separated by developing twice on silica gel thin-layer chromatography (abbreviated as “TLC” hereinafter) using, as a developer, a mixture solution of n-butanol, pyridine, and water (=6:4:1 by volume), and, as a thin-layer plate, “[…]™ 60”, an aluminum plate (20×20 cm) for TLC commercialized by Merck & Co., Inc., Rahway, USA. The coloration of the separated total sugars by the sulfuric acid-methanol method and that of the reducing saccharides by the diphenylamine-aniline method detected a non-reducing saccharide positive at an Rf value of about 0.31 on the former detection method but negative on the latter detection method.
(§2) It was tested whether any saccharides can be used as substrates for α-isomaltosylglucosaccharide-forming enzyme. For the purpose, a solution of maltose, maltotriose, maltotetraose, maltopentaose, maltohexaose, maltoheptaose, isomaltose, isomaltotriose, panose, isopanose, α,α-trehalose, kojibiose, nigerose, neotrehalose, cellobiose, gentibiose, maltitol, maltotriitol, lactose, sucrose, erlose, selaginose, maltosyl glucoside, or isomaltosyl glucoside was prepared.
(§3) To each of the above solutions was added two units/g substrate of a purified specimen of α-isomaltosylglucosaccharide-forming enzyme from either Bacillus globisporus C9 strain obtained by the method in Experiment 4-2, Bacillus globisporus C11 strain obtained by the method in Experiment 7-2, Bacillus globisporus N75 strain obtained by the method in Experiment 11-2, or Arthrobacter globiformis A19 strain obtained by the method in Experiment 15-2, and the resulting each solution was adjusted to give a substrate concentration of 2% (w/v) and incubated at 30° C. and pH 6.0 for 24 hours, except for using pH 8.4 for the enzyme from Arthrobacter globiformis A19 strain. The enzyme solutions before and after the enzymatic reactions were respectively analyzed on TLC disclosed in Experiment 1 to confirm whether the enzymes acted on these substrates.

The test system is the same in assay [2]. Nature of the assay: Action on saccharides as substrates (TLC), enzyme of C11 strain. The assay is classed as biochemical, Bacillus globisporus C11 strain. Also noted: key: −: it showed no change; +: it showed a slight reduction of the color spot of the substrate and the formation of other reaction product; ++: it showed a high reduction of the color spot of the substrate and the formation of other reaction product; +++: it showed a substantial disappearance of the substrate spot and the formation of other reaction product. The settings on record: two units/g substrate, substrate 2% (w/v), 30° C., pH 6.0, 24 hours.
Description: as §1, §2, §3

Assay [3] has the same test system. Nature of the assay: Action on saccharides as substrates (TLC), enzyme of N75 strain. The class given is biochemical, Bacillus globisporus N75 strain. Also noted: key: −: it showed no change; +: it showed a slight reduction of the color spot of the substrate and the formation of other reaction product; ++: it showed a high reduction of the color spot of the substrate and the formation of other reaction product; +++: it showed a substantial disappearance of the substrate spot and the formation of other reaction product. The settings on record: two units/g substrate, substrate 2% (w/v), 30° C., pH 6.0, 24 hours.
Description: as §1, §2, §3

Assay [4] has the same test system. Nature of the assay: Action on saccharides as substrates (TLC), enzyme of A19 strain. The class given is biochemical, Arthrobacter globiformis A19 strain. Also noted: key: −: it showed no change; +: it showed a slight reduction of the color spot of the substrate and the formation of other reaction product; ++: it showed a high reduction of the color spot of the substrate and the formation of other reaction product; +++: it showed a substantial disappearance of the substrate spot and the formation of other reaction product. Particulars: two units/g substrate, substrate 2% (w/v), 30° C., pH 8.4, 24 hours.
Description: as §1, §2, §3

Assay [5] shares this test system. Put plainly: Transfer-acceptor specificity, enzyme of C9 strain. The class given is biochemical, Bacillus globisporus C9 strain. The settings on record: acceptor 1.6%, PINE-DEX #100 donor 4%, one unit/g donor, 30° C., pH 6.0, 24 hours. In short, it runs like this:
(§4)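 Acceptor saccharides at 1.6% with partial starch hydrolyzate donor at 4% and purified enzyme at 1 unit/g donor, d.s.b., 30 °C, 24 h, pH 6.0 (pH 8.4 for A19 enzyme). Transfer products of mono- and disaccharide acceptors analysed by GLC, of trisaccharide acceptors by HPLC with refractometer detection.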

The test system is the same in assay [6]. Put plainly: Transfer-acceptor specificity, enzyme of C11 strain. The class given is biochemical, Bacillus globisporus C11 strain. The settings on record: acceptor 1.6%, PINE-DEX #100 donor 4%, one unit/g donor, 30° C., pH 6.0, 24 hours. In short, it runs like this: as §4
The test system is the same in assay [7]. Nature of the assay: Transfer-acceptor specificity, enzyme of N75 strain. The settings on record: acceptor 1.6%, PINE-DEX #100 donor 4%, one unit/g donor, 30° C., pH 6.0, 24 hours. The class given is biochemical, Bacillus globisporus N75 strain. In short, it runs like this:
as §4

Assay [8] shares this test system. Nature of the assay: Transfer-acceptor specificity, enzyme of A19 strain. Particulars: acceptor 1.6%, PINE-DEX #100 donor 4%, one unit/g donor, 30° C., pH 8.4, 24 hours. The class given is biochemical, Arthrobacter globiformis A19 strain. In short, it runs like this: as §4

For `OC[C@H]1O[C@H](OC[C@H]2OC(O)[C@H](O)[C@@H](O)[C@@H]2O)[C@H](O)[C@@H](O)[C@@H]1O` (stereo partly drawn) [Isomaltose, isomaltose], the “Enzymatic action, Enzyme of C9 strain” value in assay [1] is recorded as “−”. Further, the “Enzymatic action, Enzyme of C11 strain” value in assay [2] is reported as “−”. Besides, in assay [3], the “Enzymatic action, Enzyme of N75 strain” value is “−”. In addition, the “Enzymatic action, Enzyme of A19 strain” value in assay [4] is “−”. Besides, the “Product of transferring reaction, Enzyme of C9 strain” value (“Product … of C9 strain” for short) in assay [5] is listed as “++ (a saccharide-transferred product was detected in an amount over ten percent through transfer reaction to acceptor)”. Also, in assay [6], the “Product of transferring reaction, Enzyme of C11 strain” value (“Product … of C11 strain” for short) is “++ (a saccharide-transferred product was detected in an amount over ten percent through transfer reaction to acceptor)”. Moreover, the “Product of transferring reaction, Enzyme of N75 strain” value (from here on “Product … of N75 strain”) in assay [7] is “++ (a saccharide-transferred product was detected in an amount over ten percent through transfer reaction to acceptor)”. The “Product of transferring reaction, Enzyme of A19 strain” value (from here on “Product … of A19 strain”) in assay [8] is reported as “+ (a saccharide-transferred product was detected in an amount over one percent but less than 10% through transfer reaction to acceptor)”.

As for `OC[C@H]1O[C@H](OC[C@H]2O[C@H](OC[C@H]3OC(O)[C@H](O)[C@@H](O)[C@@H]3O)[C@H](O)[C@@H](O)[C@@H]2O)[C@H](O)[C@@H](O)[C@@H]1O` (stereo partly drawn) [Isomaltotriose, isomaltotriose], the “Enzymatic action, Enzyme of C9 strain” value in assay [1] is recorded as “−”. Further, in assay [2], the “Enzymatic action, Enzyme of C11 strain” value is on record as “−”. Moreover, the “Enzymatic action, Enzyme of N75 strain” value in assay [3] is “−”. The “Enzymatic action, Enzyme of A19 strain” value in assay [4] is reported as “−”. For the same compound, in assay [5], the “Product … of C9 strain” value was “++ (a saccharide-transferred product was detected in an amount over ten percent through transfer reaction to acceptor)”. Besides, the “Product … of C11 strain” value in assay [6] is reported as “++ (a saccharide-transferred product was detected in an amount over ten percent through transfer reaction to acceptor)”. The “Product … of N75 strain” value in assay [7] is listed as “++ (a saccharide-transferred product was detected in an amount over ten percent through transfer reaction to acceptor)”. Moreover, the “Product … of A19 strain” value in assay [8] is listed as “± (a saccharide-transferred product was detected in an amount less than one percent through transfer reaction to acceptor)”.

For `OC[C@H]1O[C@@H](O[C@H]2[C@H](O)[C@@H](O)C(O)O[C@@H]2CO)[C@H](O)[C@@H](O)[C@H]1O` (stereo partly drawn) [Lactose, lactose], in assay [1], the “Enzymatic action, Enzyme of C9 strain” value was “−”. In addition, the “Enzymatic action, Enzyme of C11 strain” value in assay [2] is on record as “−”. Besides, the “Enzymatic action, Enzyme of N75 strain” value in assay [3] was “−”. The “Enzymatic action, Enzyme of A19 strain” value in assay [4] is on record as “−”. The “Product … of C9 strain” value in assay [5] is listed as “++ (a saccharide-transferred product was detected in an amount over ten percent through transfer reaction to acceptor)”. For the same compound, the “Product … of C11 strain” value in assay [6] was “++ (a saccharide-transferred product was detected in an amount over ten percent through transfer reaction to acceptor)”. In addition, the “Product … of N75 strain” value in assay [7] is “++ (a saccharide-transferred product was detected in an amount over ten percent through transfer reaction to acceptor)”. Moreover, the “Product … of A19 strain” value in assay [8] is on record as “++ (a saccharide-transferred product was detected in an amount over ten percent through transfer reaction to acceptor)”.

Take `OC[C@@H](O)[C@@H](O[C@H]1O[C@H](CO)[C@@H](O)[C@H](O)[C@H]1O)[C@H](O)[C@@H](O)CO` [Maltitol, maltitol]: in assay [1], the “Enzymatic action, Enzyme of C9 strain” value was “−”. Besides, the “Enzymatic action, Enzyme of C11 strain” value in assay [2] is “−”. Moreover, in assay [3], the “Enzymatic action, Enzyme of N75 strain” value was “−”. Further, in assay [4], the “Enzymatic action, Enzyme of A19 strain” value was “−”. In addition, the “Product … of C9 strain” value in assay [5] was “++ (a saccharide-transferred product was detected in an amount over ten percent through transfer reaction to acceptor)”. For the same compound, the “Product … of C11 strain” value in assay [6] is given as “++ (a saccharide-transferred product was detected in an amount over ten percent through transfer reaction to acceptor)”. Moreover, the “Product … of N75 strain” value in assay [7] is “++ (a saccharide-transferred product was detected in an amount over ten percent through transfer reaction to acceptor)”. For the same compound, in assay [8], the “Product … of A19 strain” value is on record as “++ (a saccharide-transferred product was detected in an amount over ten percent through transfer reaction to acceptor)”.

Turning to `OC[C@H]1O[C@@](CO)(O[C@H]2O[C@H](CO)[C@@H](O)[C@H](O)[C@H]2O)[C@@H](O)[C@@H]1O` [Sucrose, sucrose], the “Enzymatic action, Enzyme of C9 strain” value in assay [1] is reported as “−”. Moreover, the “Enzymatic action, Enzyme of C11 strain” value in assay [2] was “−”. Moreover, the “Enzymatic action, Enzyme of N75 strain” value in assay [3] is given as “−”. The “Enzymatic action, Enzyme of A19 strain” value in assay [4] is listed as “−”. Further, the “Product … of C9 strain” value in assay [5] was “++ (a saccharide-transferred product was detected in an amount over ten percent through transfer reaction to acceptor)”. In addition, in assay [6], the “Product … of C11 strain” value is reported as “++ (a saccharide-transferred product was detected in an amount over ten percent through transfer reaction to acceptor)”. In addition, the “Product … of N75 strain” value in assay [7] is given as “++ (a saccharide-transferred product was detected in an amount over ten percent through transfer reaction to acceptor)”. The “Product … of A19 strain” value in assay [8] is on record as “++ (a saccharide-transferred product was detected in an amount over ten percent through transfer reaction to acceptor)”.

On to `OC[C@H]1O[C@H](O[C@H]2O[C@H](CO)[C@@H](O)[C@H](O)[C@H]2O)[C@H](O)[C@@H](O)[C@@H]1O` [Trehalose, α,α-trehalose], for which the “Enzymatic action, Enzyme of C9 strain” value in assay [1] is reported as “−”. In addition, the “Enzymatic action, Enzyme of C11 strain” value in assay [2] is given as “−”. Also, the “Enzymatic action, Enzyme of N75 strain” value in assay [3] was “−”. The “Enzymatic action, Enzyme of A19 strain” value in assay [4] was “−”. Further, in assay [5], the “Product … of C9 strain” value is reported as “++ (a saccharide-transferred product was detected in an amount over ten percent through transfer reaction to acceptor)”. For the same compound, the “Product … of C11 strain” value in assay [6] is reported as “++ (a saccharide-transferred product was detected in an amount over ten percent through transfer reaction to acceptor)”. Further, in assay [7], the “Product … of N75 strain” value is recorded as “++ (a saccharide-transferred product was detected in an amount over ten percent through transfer reaction to acceptor)”. Also, the “Product … of A19 strain” value in assay [8] was “++ (a saccharide-transferred product was detected in an amount over ten percent through transfer reaction to acceptor)”.
